In US10899739B2, “Macrophage migration inhibitory factor inhibitors, and methods of making and using same” (YALE UNIVERSITY, priority 2017, dated 2021):
pKd, pKi: −log10 of the molar value. Values after ≈ are worked out from the molar mass of the structure shown. Read-outs that look alike come from different tables or passages of the source.

Key:
MIF [1] = molecular target: T1, MIF (Homo sapiens, UniProt P14174); assay: MIF tautomerase inhibition assay with 4-hydroxyphenylpyruvic acid (HPP) as substrate; assay type: biochemical
T1 construct: made in house
T1 sequence (P14174 2-115 limits assumed): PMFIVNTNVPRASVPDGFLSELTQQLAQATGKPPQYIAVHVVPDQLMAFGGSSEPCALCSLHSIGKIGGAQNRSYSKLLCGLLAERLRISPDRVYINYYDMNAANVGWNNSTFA

MIF [2] = molecular target: T1, MIF; assay: fluorescence polarization binding assay
[3] = shake-flask; data for previously reported analogs of 1 and 2; cited from earlier work
[4] = aqueous solubility, shake-flask procedure; assay type: physicochemical; details: aqueous buffer, thermodynamic from solid, Britton-Robinson buffer pH 6.5, read-out: Aqueous Solubility S
Method: For the assaying, inhibition constants Ki were determined as before using 4-hydroxyphenylpyruvic acid (HPP) as the substrate (Cisneros, et al., 2016, Bioorg. Med. Chem. Lett. 26:2764-2767). Inhibitory activity is monitored by measuring formation of the borate complex of the enol product at 305 nm using a Tecan Infinite F500 plate reader. Binding constants Kd were also obtained for the new compounds using a fluorescence polarization assay (Cisneros, et al., 2016, J. Am. Chem. Soc. 138:8630-8638). […] Saturated solutions in Britton-Robinson buffer (pH 6.5) are filtered (Acrodisc syringe, 0.2 μm pore) and analyzed by UV-vis spectroscopy (Agilent 8453).

With “methyl 3-(4-hydroxyphenyl)-4,5-dihydroisoxazole-5-carboxylate [ISO-1]” as the compound, how does the pKi (MIF [1]; HPP substrate, new naphthyridinones and ISO-1, read-out: Experimental Inhibition Constants Ki) read?
The pKi was 4.52.

What about the pKi (MIF [1]; spread of nine measurements, read-out: Ki, results of repeated measurements) of the same compound?
The pKi was 4.41 to 4.68.

What about the pKd (MIF [2]; fluorescence polarization, new compounds and ISO-1, read-out: Binding Constants Kd) of the same compound?
Its pKd is 4.64.

And the pKd (MIF [2]; spread of four measurements, read-out: Kd, results of repeated measurements)?
The pKd was 4.52 to 4.70.

Which “Aqueous Solubility S” value [3] does the source give for `O=C(O)COc1ccc2nc(-c3cn(-c4ccc(O)cc4)nn3)ccc2c1` [Compound 1f] here?
The value was 0.365 mg/mL.

For `OCCOc1ccc2nc(-c3cn(-c4ccc(O)cc4)nn3)ccc2c1` [Compound 1b], which “Aqueous Solubility S” value [3] is on record?
The value was 0.0026 mg/mL.

With `O=C(O)Cn1ccc2ccc(-c3cn(-c4ccc(O)c(F)c4)nn3)nc2c1=O` [Compound 4b, 2-(2-(1-(3-fluoro-4-hydroxyphenyl)-1H-1,2,3-triazol-4-yl)-8-oxo-1,7-naphthyridin-7(8H)-yl)acetic acid] as the compound, how does the solubility [4] read?
The solubility was 0.288 mg/mL (≈ 755 µM).

Which “Aqueous Solubility S” value [3] does the source give for `NCCOc1ccc2nc(-c3cn(-c4ccc(O)cc4)nn3)ccc2c1` [Compound 1c] here?
The value was 0.0037 mg/mL.

For `O=C(O)COc1ccc2nc(-c3cn(-c4ccc(O)c(F)c4)nn3)ccc2c1` [Compound 2c], which “Aqueous Solubility S” value [3] is on record?
The value was 0.037 mg/mL.
